# Data: US12257214B2, “Compositions and methods comprising deoxy-pentitols” (The Charlotte Mecklenburg Hospital Authority, priority 2021, dated 2025)
# Experiments:
# A-204 = test: ATPlite cell IC50 screening, A-204; format: cell-based; settings: Homo sapiens, A204; A-204, Embryonal rhabdomyosarcoma; ATPlite luminescence
# Protocol: (§1) In brief, the cells were cultures in relevant medium and treated with a range of 9 doses of 2-deoxyribitol, from 10 mM, 5 mM, 2.5 mM, 1.25 mM, 0.62 mM, 0.31 mM, 0.08 mM, and 0.04 mM. Cells were diluted in the corresponding ATCC recommended medium and dispensed in a 384-well plate, depending on the cell line used, at a density of 100-6400 cells per well in 45 μl medium. For each used cell line the optimal cell density was used. The margins of the plate were filled with phosphate-buffered saline. Plated cells were incubated in a humidified atmosphere of 5% CO2 at 37° C. After 24 hours, 5 μl of compound dilution was added and plates were further incubated. At the end of experiment (t=end), 24 μl of ATPlite 1Step™ (PerkinElmer) solution was added to each well, and subsequently shaken for 2 minutes. After 10 minutes of incubation in the dark, the luminescence was recorded on an Envision multimode reader (PerkinElmer). IC50 was determined in comparison with the control samples. The cell lines tested and their corresponding disease model is indicated the left-most and middle columns, respectively. IC50 values are given in μM values in the right-most column. This screening was performed of a list of cancer cells to establish IC50 values for each of the cancer cell lines. This screening provides evidence for the potential of 2DR to treat many cancer types.
# HuTu 80 = test: ATPlite cell IC50 screening, HuTu 80; format: cell-based; settings: Homo sapiens, HuTu80; HuTu 80, Duodenal adenocarcinoma; ATPlite luminescence
# Protocol: as §1
# SW48 = test: ATPlite cell IC50 screening, SW48; format: cell-based; settings: Homo sapiens; SW48, Colon adenocarcinoma; ATPlite luminescence
# Protocol: as §1
# ES-2 = test: ATPlite cell IC50 screening, ES-2; format: cell-based; settings: Homo sapiens; ES-2, Ovarian clear cell adenocarcinoma; ATPlite luminescence
# Protocol: as §1
# MCF7 cells [1] = test: Mammosphere formation (FIG. 4); format: cell-based
# Protocol: Cells were also treated with Vitamin C (VitC) at a concentration of 50 μM for 5 days (5d) and then returned to normal medium (NM) for 6 days (d6), without (lower left panel) or with 2-deoxyribitol (Drug, lower right panel). The formation of cancer mammospheres, considered to be cancer stem cell-rich population, can be seen in culture without Drug treatment, and with Vitamin C treatment only. Drug treatment greatly reduces to eliminates the formation of cancer mammospheres.
# To examine mammosphere formation, MCF7 cells were grown for 11 days with or without 2-deoxyribitol (drug) treatment (FIG. 4, top panels). In addition, MCF7 cells were treated with Vitamin C at the concentration of 50 μM for 5 days and then returned to normal medium (“NM”) for 6 days (FIG. 4, lower panels).
# 5637 = test: ATPlite cell IC50 screening, 5637; format: cell-based; settings: 5637, Bladder carcinoma; ATPlite luminescence
# Protocol: as §1
# A-498 = test: ATPlite cell IC50 screening, A-498; format: cell-based; settings: Homo sapiens, A498; A-498, Renal cell carcinoma; ATPlite luminescence
# Protocol: as §1
# CCF-STTG1 = test: ATPlite cell IC50 screening, CCF-STTG1; format: cell-based; settings: Homo sapiens; CCF-STTG1, Astrocytoma; ATPlite luminescence
# Protocol: as §1
# [2] = system: MDA231 cells (triple negative breast cancer cell); test: MDA231 cell growth; format: cell-based
# Protocol: (§2) However, this effect was not related to the enhanced expression of glycosylation of α-DG.
# (§3) Less than 50% of cells and 10% of cells were detected with the treatment of 10 mM and 50 mM 2-deoxyribitol, respectively.
# RPMI-7951 = test: ATPlite cell IC50 screening, RPMI-7951; format: cell-based; settings: Homo sapiens; RPMI-7951, Melanoma; ATPlite luminescence
# Protocol: as §1
# HT-1080 = test: ATPlite cell IC50 screening, HT-1080; format: cell-based; settings: Homo sapiens; HT-1080, Fibrosarcoma; ATPlite luminescence
# Protocol: as §1
# RL95-2 = test: ATPlite cell IC50 screening, RL95-2; format: cell-based; settings: Homo sapiens; RL95-2, Endometrial adenosquamous carcinoma; ATPlite luminescence
# Protocol: as §1
# [3] = system: normal human breast epithelial cells MCF7-10F; test: Normal breast epithelial cell culture (FIG. 8); format: cell-based; settings: 2-40 mM, 4 days
# Protocol: 2-deoxyribitol was given in ascending doses of 2 mM (top middle panel), 5 mM (top right panel), 10 mM (bottom left panel), 20 mM (bottom middle panel), and 40 mM (bottom right panel). No significant differences were observed between the control and drug-treated cells at any dose.
# In contrast, 2-deoxyribitol produced unnoticeable changes in cell culture of normal human myoblasts or differentiated myotubes (FIG. 7), indicating its low toxicity potential to normal cell populations. In this study, normal human myoblasts (HSKM cells) were treated with 2-deoxyribitol (Drug) for 3 days.
# MCF7 cells [4] = test: Anchorage independent growth, tumor colonies in agar gel (FIG. 3); format: cell-based; settings: 20 days
# Excerpt: Stars indicate a significant difference as compared to the control (p<0.01, n=3).
# as §2
# breast cancer T47D cells = test: T47D cell growth; format: cell-based
# Protocol: as §3
# Water solubility = format: physicochemical
# Excerpt: It can be delivered by direct application to local areas, given orally or through vasculature system. 2-deoxyribitol can also be delivered before, at the same time, or after the use of other drugs. 2-deoxyribitol can be applied as treatment for cancers before, at the same time, or after any other treatment procedure(s). In addition, the effect of 2-deoxyribitol on three tissue types of cancers indicate that it can be applied for many other epithelial cancers.
# NCI-H82 = test: ATPlite cell IC50 screening, NCI-H82; format: cell-based; settings: Homo sapiens; NCI-H82, Small cell lung carcinoma; ATPlite luminescence
# Protocol: as §1
# [5] = system: hepatocarcinoma HEPG2 cells; test: HEPG2 cell culture, growth and death (FIG. 6); format: cell-based
# Protocol: The cells grow into large sheets (Control; top left panel), but remain tightly packed with limited cytoplasm. Cells were treated with 5 mM (top middle panel), 10 mM (top right panel), 20 mM (bottom left panel), or 40 mM (bottom right panel) 2-deoxyribitol (Drug). A dose-dependent decrease in cell density and increase in volume of cytoplasm is observed with the drug treatment.
# 2-deoxyribitol was also found to be effective at inhibiting the growth of and inducing cell death in the hepatocarcinoma cell HEPG2. […] HEPG2 cells have a clonal growth pattern with tightly-packed cells growing out to fill the surrounding empty space. […] Small numbers of cell death were also detected in the remaining narrow areas where the size of the cells was relatively smaller than those of surrounding cells.
structure (smiles),measurement,setting,value
OCC[C@H](O)[C@H](O)CO [2-deoxyribitol],IC50,A-204,6.06 mM
same,IC50,HuTu 80,4.92 mM
same,IC50,SW48,4.49 mM
same,IC50,ES-2,8.74 mM
same,number of mammospheres after Vitamin C pre-treatment,"MCF7 cells [1]; MCF7, Vitamin C 50 μM 5 days, then 6 day treatment with 2-deoxyribitol",decreased dramatically
same,formation of mammospheres,"MCF7 cells [1]; MCF7 grown 11 days, 5 mM",no spheres were seen
same,IC50,5637,9.33 mM
same,IC50,A-498,8.73 mM
same,IC50,CCF-STTG1,5.84 mM
same,inhibitory effect as seen in MCF7 (growth / anchorage independent growth),"[2]; MDA231, concentrations lower than 10 mM",clearly demonstrated
same,inhibiting cell growth,[2]; MDA231 cells,had an effect on inhibiting cell growth
same,IC50,RPMI-7951,6.77 mM
same,IC50,HT-1080,4.39 mM
same,IC50,RL95-2,6.42 mM
same,growth inhibition or cell death of normal breast cells,[3],did not inhibit growth or cause cell death
same,cell colonies in agar culture,MCF7 cells [4]; 10 mM,absence of cell colony
same,anchorage independent growth (formation of tumor colonies within agar gel),MCF7 cells [4]; 10 mM and 20 mM,significantly inhibited
same,inhibiting cell growth,breast cancer T47D cells,had an effect on inhibiting cell growth
same,water solubility,Water solubility,water soluble
same,IC50,NCI-H82,2.94 mM
same,effect on number of cells and cytoplasm,"[5]; HEPG2, 5-40 mM",decreased the number of cells with increasing amount of cytoplasm dose-dependently
same,cell size relative to control cells,"[5]; HEPG2, majority of cells, dose of 20 mM or higher",three or more times larger
